Experimental data as given in US5037812A, “Tumor cell growth-inhibiting pharmaceutical compositions containing phosphino-hydrocarbon-gold, silver or copper complexes” (priority 1986, dated 1991).
Values joined by “and” are separate entries in the source; they are usually repeats but may differ in a detail not shown here. Equal values may be shown once.

Key:
P388 leukemia = experiment: ip P388 leukemia mouse model; assay type: in vivo, mice (B6D2F1); details: for MTD (maximally tolerated dose): B6D2F female mice, ip qDX5; for ILS max (maximum increase in lifespan): mice bearing ip P388 leukemia, ip days 1-5 at MTD, slash-separated figures are separate experiments
Description: This tumor system is widely accepted as an antitumor agent screening tool because it is sensitive to virtually all of the clinically active antineoplastic agents; quantitative and reproducible; amenable for large-scale screening; and predictive for activity in other animal tumor models.
10^6 P388 leukemia cells are inoculated ip in B6D2F1 mice. Twenty-four hours later, if the tumor inoculum proves to be free of bacterial contamination (as determined by 24 hours incubation in thioglycollate broth), animals are randomized into groups of 6 and housed in shoebox cages. […] An equal volume of saline or water is added; if the drug comes out of solution an equal volume of Cremophor (polyethoxylated castor oil) is added and then saline or water, as to a concentration such that the desired dose is delivered in 0.5 ml. The final concentration of DMA, ethanol or Cremophor is 10 percent. Dilutions for lower doses are made with saline or water so that there is a decreasing proportion of organic solvents in the vehicle with decreasing dosage. […] Formulations are prepared immediately prior to injection. The Formula (I) and Formula (II) compounds are administered ip on Days 1 through 5 (i.e., treatment is initiated 24 hrs after tumor inoculation). Each experiment includes three groups of 6 animals as untreated controls and animals treated with a positive control, cisplatin, at two dose levels. Animals are weighed as a group on Days 1, 5 and 9 and average weight change (Δwt.) is used as a reflection of toxicity. Each experiment also includes an inoculum titration--groups of 8 mice inoculated ip with 10^5 to 10^0 P388 leukemia cells. The titration is used as a quality control check for the performance of the tumor model. Animals are monitored daily for mortality and experiments are terminated after 45 days. The endpoint is median survival time (MST) and increase in lifespan (ILS) which is the percentage of increase in MST relative to untreated controls.

[1] = test system: M5076 reticulum cell sarcoma; experiment: ip M5076 reticulum cell sarcoma in mice; assay type: in vivo, mice (B6D2F female); details: for MTD (maximally tolerated dose): B6D2F female mice, ip qDX10; for ILS max (maximum increase in lifespan): mice bearing ip M5076, ip qDX10 at MTD, slash-separated figures are separate experiments
Description: Another tumor model used for evaluation of tumor growth inhibiting drugs is intraperitoneally implanted M5076 reticulum cell sarcoma in mice. […] Drugs are administered ip. Daily treatment is begun 24 hours after implantation and is continued for ten days. The treatment regimen for M5076 is more prolonged than for P388 because of the slower growth rate and longer control survival time of the M5076 tumor. Compounds of Formula (I) and Formula (II) were evaluated in this assay. An evaluation of several compounds of Formula (I) in the M5076 reticulum cell sarcoma assay at their maximally tolerated dose (MTD) is set forth in Table III. An ILS of ≥25% indicates activity in this tumor model.
^(b) maximally tolerated dose for B6D2F female mice on an ip qDX10
^(c) maximum increase in lifespan produced in mice bearing ip M5076

B16 melanoma = experiment: in vivo ip B16 melanoma assay; parameters: species or system mice (B6D2F1); details: ip qDX10; for MTD (maximally tolerated dose): B6D2F1 mice; for ILS (maximum increase in lifespan): mice bearing ip B16 melanoma, slash-separated figures are separate experiments
Description: Daily treatment is begun 24 hours after tumor implantation and is continued daily for ten (10) days. The route of drug administration is ip. The mice are monitored daily for survival for sixty (60) days. Antitumor activity is assessed by prolongation of median survival time. An ILS of ≥25% indicates activity in this tumor model.
^(b) maximally tolerated dose for B6D2F1 mice on an ip qDX10
^(c) maximum increase in lifespan produced in mice bearing ip B16

[2] = solubility in 9:1 water:ethanol (HPLC of filtrate); details: stirred 15 hours, 0.45 μm PTFE filter, HPLC
Description: Such solubility was determined as follows: The compound in question was dissolved or suspended in absolute ethanol (250 mg solid per 1.0 ml ethanol). To the resulting solution or suspension, water (9.0 times the volume of ethanol) was added. This suspension was stirred vigorously for 15 hours, then filtered through a 0.45 μm poly(tetrafluoroethylene) (PTFE) filter. […] The HPLC system was as follows:
Column PLRP-S, 5μm, obtained from Polymer Laboratories, Inc.
Mobile Phase 9:1 acetonitrile:0.1% tetra-n-butylammonium hydrogen sulfate (50° C., 1.0 ml-min-^-1)
Detection Ultraviolet (250 nm)

Compound	MTD (maximally tolerated dose) (P388 leukemia)	ILS max (maximum increase in lifespan) (P388 leukemia)	MTD (maximally tolerated dose) [1]	ILS max (maximum increase in lifespan) [1]	MTD (maximally tolerated dose) (B16 melanoma)	ILS (maximum increase in lifespan) (B16 melanoma)	Solubility in 9:1 Water:Ethanol [2]
CCP(CC)CCP(c1ccccc1)c1ccccc1.CCP(CC)CCP(c1ccccc1)c1ccccc1.[Au+].[Cl-] [compound 8]	3 mg/kg	54 ± 16%	2 mg/kg	46%			
C1=C[PH](c2ccccc2)(c2ccccc2)[Cu+]2([PH]1(c1ccccc1)c1ccccc1)[PH](c1ccccc1)(c1ccccc1)C=C[PH]2(c1ccccc1)c1ccccc1.[Cl-] (stereo not drawn) [compound 13, Bis[cis-1,2-bis(diphenylphosphino)ethylene]Copper(I) Chloride]	3 mg/kg	70 ± 23%	2 mg/kg	40%	0.75 mg/kg	42%	
O=S(=O)([O-])[O-].c1ccc([PH]2(c3ccccc3)CC[PH](c3ccccc3)(c3ccccc3)[Au+]23[PH](c2ccccc2)(c2ccccc2)CC[PH]3(c2ccccc2)c2ccccc2)cc1.c1ccc([PH]2(c3ccccc3)CC[PH](c3ccccc3)(c3ccccc3)[Au+]23[PH](c2ccccc2)(c2ccccc2)CC[PH]3(c2ccccc2)c2ccccc2)cc1 (stereo not drawn) [compound 17, Bis{bis[1,2-bis(diphenylphosphino)ethane]gold(I)} sulfate]	2 mg/kg	74% and 50%					0.03 mg/mL
Tris{bis-[1,2-bis(diphenylphosphino)ethane]gold(I)} citrate [compound 19]	4 mg/kg	95% and 90%					0.03 mg/mL
CCC(O)C(=O)[O-].[Au+].c1ccc(P(CCP(c2ccccc2)c2ccccc2)c2ccccc2)cc1.c1ccc(P(CCP(c2ccccc2)c2ccccc2)c2ccccc2)cc1 [compound 24, Bis[1,2-bis(diphenylphosphino)ethane]gold(I) DL-2-hydroxybutanoate]	2 mg/kg	55% and 80%					0.9 mg/mL
O=C([O-])CO.[Au+].c1ccc(P(CCP(c2ccccc2)c2ccccc2)c2ccccc2)cc1.c1ccc(P(CCP(c2ccccc2)c2ccccc2)c2ccccc2)cc1 [compound 23, Bis[1,2-bis(diphenylphosphino)ethane]gold(I) hydroxyacetate]	2 mg/kg	55% and 75%					8.6 mg/mL
CC(=O)C(=O)[O-].[Au+].c1ccc(P(CCP(c2ccccc2)c2ccccc2)c2ccccc2)cc1.c1ccc(P(CCP(c2ccccc2)c2ccccc2)c2ccccc2)cc1 [compound 21, Bis[1,2-bis(diphenylphosphino)ethane]gold(I) 2-oxopropanoate]	2 mg/kg	60% and 50%					0.20 mg/mL
CS(=O)(=O)[O-].[Au+].c1ccc(P(CCP(c2ccccc2)c2ccccc2)c2ccccc2)cc1.c1ccc(P(CCP(c2ccccc2)c2ccccc2)c2ccccc2)cc1 [compound 14, Bis[1,2-bis(diphenylphosphino)ethane]gold(I) methanesulfonate]	2 mg/kg	81 ± 17%					0.03 mg/mL
Fc1cccc(P(CCP(c2cccc(F)c2)c2cccc(F)c2)c2cccc(F)c2)c1.Fc1cccc(P(CCP(c2cccc(F)c2)c2cccc(F)c2)c2cccc(F)c2)c1.[Au+].[Cl-] [compound 7, Bis[1,2-bis[bis(. Phosphino]ethane]Gold(I) Chloride]		45% and 55%					
CCP(CC)CCP(c1ccccc1)c1ccccc1.CCP(CC)CCP(c1ccccc1)c1ccccc1.[Cl-].[Cu+] [compound 9]	1.5 mg/kg	48% and 45%					
N#C[O-].[Au+].c1ccc(P(CCP(c2ccccc2)c2ccccc2)c2ccccc2)cc1.c1ccc(P(CCP(c2ccccc2)c2ccccc2)c2ccccc2)cc1 [compound 18, Bis[1,2-bis(diphenylphosphino)ethane]gold(I) cyanate]	2 mg/kg	84% and 50%					0.06 mg/mL
CCP(CC)CCP(CC)CC.CCP(CC)CCP(CC)CC.F[P-](F)(F)(F)(F)F.[Au+] [compound 10, Bis[1,2-bis(diethylphosphino)ethane]Gold(I) Hexafluorophosphate]	4 mg/kg	40% and 30%					
O=S(=O)([O-])C(F)(F)F.[Au+].c1ccc(P(CCP(c2ccccc2)c2ccccc2)c2ccccc2)cc1.c1ccc(P(CCP(c2ccccc2)c2ccccc2)c2ccccc2)cc1 [compound 20, Bis[1,2-bis(diphenylphosphino)ethane]gold(I) trifluoromethanesulfonate]	2 mg/kg	63% and 75%					0.02 mg/mL
Bis[1,2-bis(diethylphosphino)ethane]Silver(I) Nitrate [compound 11]	0.5 mg/kg	50% and 40%					
O=C([O-])C1OC(O)C(O)C(O)C1O.[Au+].c1ccc(P(CCP(c2ccccc2)c2ccccc2)c2ccccc2)cc1.c1ccc(P(CCP(c2ccccc2)c2ccccc2)c2ccccc2)cc1 [compound 16, Bis[1,2-bis(diphenylphosphino)ethane]gold(I) glucuronate]	2 mg/kg	64 ± 17%			1.5 mg/kg	40%	0.30 mg/mL
O=C([O-])CCCO.[Au+].c1ccc(P(CCP(c2ccccc2)c2ccccc2)c2ccccc2)cc1.c1ccc(P(CCP(c2ccccc2)c2ccccc2)c2ccccc2)cc1 [compound 22, Bis[1,2-(diphenylphosphino)ethane]gold(I) 4-hydroxybutanoate]	2 mg/kg	65% and 70%					2.9 mg/mL
O=[N+]([O-])[O-].[Au+].c1ccc(P(CCP(c2ccccc2)c2ccccc2)c2ccccc2)cc1.c1ccc(P(CCP(c2ccccc2)c2ccccc2)c2ccccc2)cc1 [compound 5, Bis[1,2-bis(diphenylphosphino)ethane]Gold(I) Nitrate]	3 mg/kg	90 ± 17%					0.03 mg/mL
CC(O)C(=O)[O-].[Au+].c1ccc(P(CCP(c2ccccc2)c2ccccc2)c2ccccc2)cc1.c1ccc(P(CCP(c2ccccc2)c2ccccc2)c2ccccc2)cc1 [compound 15, Bis[1,2-bis(diphenylphosphino)ethane]gold(I) 2-hydroxypropanoate]	2 mg/kg	71 ± 12%			1.5 mg/kg	30%	5.2 mg/mL
[Cl-].[Cu+].c1ccc(P(CCCP(c2ccccc2)c2ccccc2)c2ccccc2)cc1.c1ccc(P(CCCP(c2ccccc2)c2ccccc2)c2ccccc2)cc1 [compound 12, Bis[1,3-bis(diphenylphosphino)propane]Copper(I) Chloride]	2 mg/kg	92 ± 15%			1 mg/kg	32% and 47%	
Bis[1,2-bis[bis(4-fluorophenyl)phosphino]ethane Gold(I) Chloride [compound 6]	3 mg/kg	55% and 50%					
